In patent publication US11820766B2, “Monoacylglycerol lipase modulators” (Janssen Pharmaceutica NV, priority 2018, dated 2023):
Counter-ions that a name gives are not always drawn.

Each molecule was assayed against T1, human MGL from HeLa cells (Homo sapiens, UniProt Q99685) (assay: In vitro MGL activity assay: [glycerol-1,3-3H]-oleyl glycerol cleavage by MGL from HeLa cells). Settings: 300 nM [Glycerol-1,3-3H]-oleyl glycerol, one hour.
T1 construct: combining endogenously expressed MGL from HeLa cells with test compounds; endogenous in cells; host or cells: HeLa cells / cell homogenates
T1 sequence (Q99685 1-303): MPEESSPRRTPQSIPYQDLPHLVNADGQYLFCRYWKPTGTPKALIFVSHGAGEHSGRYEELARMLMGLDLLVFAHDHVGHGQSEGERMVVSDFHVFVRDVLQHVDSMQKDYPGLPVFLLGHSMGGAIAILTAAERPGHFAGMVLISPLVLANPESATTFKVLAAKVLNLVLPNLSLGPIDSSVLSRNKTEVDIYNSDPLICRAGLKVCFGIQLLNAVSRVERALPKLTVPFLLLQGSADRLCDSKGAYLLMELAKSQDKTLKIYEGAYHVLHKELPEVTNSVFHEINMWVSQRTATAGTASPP
Format: biochemical
Excerpt: MGL is the predominant hydrolase in HeLa cells/cell homogenates.
For `C[C@H]1c2nn(C)c(-c3cc(F)c(F)c(F)c3)c2CCN1C(=O)c1ncnc2ccccc12` [Example 482, [(7S)-2,7-Dimethyl-3-(3,4,5-trifluorophenyl)-5,7-dihydro-4H-pyrazolo[3,4-c]pyridin-6-yl]-quinazolin-4-yl-methanone], the IC50 was 6.22 nM. In the case of `Cc1cnn2c(C(=O)N3CCc4c(nn(C)c4-c4cc(F)c(F)c(F)c4)[C@@H]3C)c(C)nc2c1` [Example 457, (2,7-Dimethylimidazo[1,2-b]pyridazin-3-yl)-[(7S)-2,7-dimethyl-3-(3,4,5-trifluorophenyl)-5,7-dihydro-4H-pyrazolo[3,4-c]pyridin-6-yl] methanone], the IC50 is reported as 39.4 nM. `Cc1ccc(-c2c3c(nn2C)[C@H](C)N(C(=O)c2ccc4ncccc4c2)CC3)cn1` [Example 519, [(7S)-2,7-Dimethyl-3-(6-methyl-3-pyridyl)-5,7-dihydro-4H-pyrazolo[3,4-c]pyridin-6-yl]-(6-quinolyl)methanone] gave an IC50 of 1450 nM. For `COc1cc(F)cc(-c2c3c(nn2C)[C@H](C)N(C(=O)c2nccc(OC)c2Cl)CC3)c1` [Example 614, (3-Chloro-4-methoxy-2-pyridyl)-[(7S)-3-(3-fluoro-5-methoxy-phenyl)-2,7-dimethyl-5,7-dihydro-4H-pyrazolo[3,4-c]pyridin-6-yl]methanone], the IC50 was 35.9 nM. Molecule `Cc1cnn2cccc(C(=O)N3CCc4c(nn(C)c4-c4cc(F)c(F)c(F)c4)[C@@H]3C)c12` [Example 380, [(7S)-2,7-Dimethyl-3-(3,4,5-trifluorophenyl)-5,7-dihydro-4H-pyrazolo[3,4-c]pyridin-6-yl]-(3-methylpyrazolo[1,5-a]pyridin-4-yl)methanone] has an IC50 of 44 nM. With `C[C@H]1c2nn(C)c(-c3cc(F)c(F)c(F)c3)c2CCN1C(=O)c1cccc2oc(=O)n(C)c12` [Example 585, 4-[(7S)-2,7-Dimethyl-3-(3,4,5-trifluorophenyl)-5,7-dihydro-4H-pyrazolo[3,4-c]pyridine-6-carbonyl]-3-methyl-1,3-benzoxazol-2-one] the IC50 was 25.4 nM. `COc1cc(F)cc(-c2c3c(nn2C)[C@H](C)N(C(=O)c2ccc4c(c2)OCCC4)CC3)c1` [Example 611, Chroman-7-yl-[(7S)-3-(3-fluoro-5-methoxy-phenyl)-2,7-dimethyl-5,7-dihydro-4H-pyrazolo[3,4-c]pyridin-6-yl]methanone] gave an IC50 of 25.6 nM. `Cc1ccccc1-c1c2c(nn1C)[C@H](C)N(C(=O)c1ccc3ncccc3c1)CC2` [Example 492, [(7S)-2,7-Dimethyl-3-(o-tolyl)-5,7-dihydro-4H-pyrazolo[3,4-c]pyridin-6-yl]-(6-quinolyl)methanone] was tested, and the IC50 was 220 nM. For `C[C@H]1c2nn(C)c(-c3cc(F)c(F)c(F)c3)c2CCN1C(=O)c1n[nH]c2cnccc12` [Example 430, [(7S)-2,7-Dimethyl-3-(3,4,5-trifluorophenyl)-5,7-dihydro-4H-pyrazolo[3,4-c]pyridin-6-yl]-(1H-pyrazolo[3,4-c]pyridin-3-yl)methanone], the IC50 was 56.1 nM. `COc1ccc2c(C(=O)N3CCc4c(nn(C)c4-c4cc(F)c(F)c(F)c4)[C@@H]3C)cnn2c1` [Example 388, [(7S)-2,7-Dimethyl-3-(3,4,5-trifluorophenyl)-5,7-dihydro-4H-pyrazolo[3,4-c]pyridin-6-yl]-(6-methoxypyrazolo[1,5-a]pyridin-3-yl)methanone.TFA salt] showed an IC50 of 60.7 nM. In the case of `COc1ccc(-c2c3c(nn2C)[C@H](C)N(C(=O)c2ccc4ncccc4c2)CC3)cc1C` [Example 512, [(7S)-3-(4-Methoxy-3-methyl-phenyl)-2,7-dimethyl-5,7-dihydro-4H-pyrazolo[3,4-c]pyridin-6-yl]-(6-quinolyl)methanone], the IC50 is reported as 185 nM. `C[C@H]1c2nn(C)c(-c3ccc4c(c3)OCO4)c2CCN1C(=O)c1ccc2ncccc2c1` [Example 540, [(7S)-3-(1,3-Benzodioxol-5-yl)-2,7-dimethyl-5,7-dihydro-4H-pyrazolo[3,4-c]pyridin-6-yl]-(6-quinolyl)methanone] gave an IC50 of 133 nM. Molecule `Cc1ccc2ncc(C(=O)N3CCc4c(nn(C)c4-c4cc(F)c(F)c(F)c4)[C@@H]3C)n2c1` [Example 400, [(7S)-2,7-Dimethyl-3-(3,4,5-trifluorophenyl)-5,7-dihydro-4H-pyrazolo[3,4-c]pyridin-6-yl]-(6-methylimidazo[1,2-a]pyridin-3-yl)methanone] has an IC50 of 52.3 nM. Work on `COc1ccccc1-c1c2c(nn1C)[C@H](C)N(C(=O)c1ccc3ncccc3c1)CC2` [Example 496, [(7S)-3-(2-Methoxyphenyl)-2,7-dimethyl-5,7-dihydro-4H-pyrazolo[3,4-c]pyridin-6-yl]-(6-quinolyl)methanone] yielded an IC50 of 54.4 nM. Molecule `Cc1cnn2nc(C3CC3)c(C(=O)N3CCc4c(nn(C)c4-c4cc(F)c(F)c(F)c4)[C@@H]3C)c2c1` [Example 445, (2-Cyclopropyl-5-methyl-pyrazolo[1,5-b]pyridazin-3-yl)-[(7S)-2,7-dimethyl-3-(3,4,5-trifluorophenyl)-5,7-dihydro-4H-pyrazolo[3,4-c]pyridin-6-yl]methanone] has an IC50 of 525 nM. `C[C@H]1c2nn(C)c(-c3cc(F)c(F)c(F)c3)c2CCN1C(=O)c1cnc2c(c1)OCCO2` [Example 570, 2,3-Dihydro-[1,4]dioxino[2,3-b]pyridin-7-yl-[(7S)-2,7-dimethyl-3-(3,4,5-trifluorophenyl)-5,7-dihydro-4H-pyrazolo[3,4-c]pyridin-6-yl]methanone] was tested, and the IC50 was 136 nM. `C[C@H]1c2nn(C)c(-c3cc(F)c(F)c(F)c3)c2CCN1C(=O)c1cn(-c2ccccc2)cn1` [Example 601, [(7S)-2,7-Dimethyl-3-(3,4,5-trifluorophenyl)-5,7-dihydro-4H-pyrazolo[3,4-c]pyridin-6-yl]-(1-phenylimidazol-4-yl)methanone] was tested, and the IC50 was 252 nM. For `C[C@H]1c2nn(C)c(-c3cc(F)c(F)c(F)c3)c2CCN1C(=O)c1cccc2c1OCC(=O)N2C` [Example 591, [(7S)-2,7-8-[(7S)-2,7-Dimethyl-3-(3,4,5-trifluorophenyl)-5,7-dihydro-4H-pyrazolo[3,4-c]pyridine-6-carbonyl]-4-methyl-1,4-benzoxazin-3-one.TFA salt], the IC50 was 4.18 nM.

Same assay, conditions: 300 nM [Glycerol-1,3-3H]-oleyl glycerol, one hour incubation
In the case of `COc1ccnc(C(=O)N2CCc3c(nn(C)c3-c3cc(F)c(F)c(F)c3)[C@@H]2C)c1C` [Example 307, [(7S)-2,7-Dimethyl-3-(3,4,5-trifluorophenyl)-5,7-dihydro-4H-pyrazolo[3,4-c]pyridin-6-yl]-(4-methoxy-3-methyl-2-pyridyl)methanone], the IC50 is reported as 181 nM. For `C[C@H]1c2nn(C)c(-c3cc(F)cc(F)c3)c2CCN1C(=O)c1ccnc2c1ccn2CCF` [Example 152, (S)-(3-(3,5-Difluorophenyl)-2,7-dimethyl-2,4,5,7-tetrahydro-6H-pyrazolo[3,4-c]pyridin-6-yl)(1-(2-fluoroethyl)-1H-pyrrolo[2,3-b]pyridin-4-yl)methanone], the IC50 was 1.63 nM. In the case of `Cn1nc2c(c1-c1ccccc1)CCN(C(=O)c1cnn(C)c1C1CC1)C2` [Example 22, (5-Cyclopropyl-1-methyl-1H-pyrazol-4-yl)(2-methyl-3-phenyl-2,4,5,7-tetrahydro-6H-pyrazolo[3,4-c]pyridin-6-yl)methanone], the IC50 is reported as 683 nM. For `C[C@H]1c2nn(C)c(-c3cc(F)c(F)c(F)c3)c2CCN1C(=O)c1ccc(F)cc1-n1nccn1` [Example 196, (S)-(2,7-Dimethyl-3-(3,4,5-trifluorophenyl)-2,4,5,7-tetrahydro-6H-pyrazolo[3,4-c]pyridin-6-yl)(4-fluoro-2-(2H-1,2,3-triazol-2-yl)phenyl)methanone], the IC50 was 307 nM. `C[C@H]1c2nn(C)c(-c3cc(F)cc(F)c3)c2CCN1C(=O)c1ccccc1-n1nccn1` [Example 147, (S)-(2-(2H-1,2,3-Triazol-2-yl)phenyl)(3-(3,5-difluorophenyl)-2,7-dimethyl-2,4,5,7-tetrahydro-6H-pyrazolo[3,4-c]pyridin-6-yl)methanone] showed an IC50 of 71.7 nM. `Cc1cnc2cc(C(=O)N3CCc4c(nn(C)c4-c4cc(Cl)cc(Cl)c4)[C@@H]3C)ccc2n1` [Example 176, (S)-(3-(3,5-Dichlorophenyl)-2,7-dimethyl-2,4,5,7-tetrahydro-6H-pyrazolo[3,4-c]pyridin-6-yl)(2-methylquinoxalin-6-yl)methanone] gave an IC50 of 8.49 nM. With `C[C@H]1c2nn(C)c(-c3cc(F)cc(F)c3)c2CCN1C(=O)c1ccc2ncccc2n1` [Example 170] the IC50 was 23.2 nM. Work on `C[C@H]1c2nn(C)c(-c3cc(F)cc(F)c3)c2CCN1C(=O)c1cc(OCCF)ccc1F` [Example 142, (S)-(3-(3,5-Difluorophenyl)-2,7-dimethyl-2,4,5,7-tetrahydro-6H-pyrazolo[3,4-c]pyridin-6-yl)(2-fluoro-5-(2-fluoroethoxy)phenyl)methanone] yielded an IC50 of 3.7 nM. `COc1cc(C(=O)N2CCc3c(nn(C)c3-c3cc(F)c(F)c(F)c3)[C@@H]2C)ccn1` [Example 312, [(7S)-2,7-Dimethyl-3-(3,4,5-trifluorophenyl)-5,7-dihydro-4H-pyrazolo[3,4-c]pyridin-6-yl]-(2-methoxy-4-pyridyl)methanone] gave an IC50 of 81.7 nM. Molecule `C[C@H]1c2nn(C)c(-c3cc(F)c(F)c(F)c3)c2CCN1C(=O)c1cncc2cccnc12` [Example 246, (S)-(2,7-Dimethyl-3-(3,4,5-trifluorophenyl)-2,4,5,7-tetrahydro-6H-pyrazolo[3,4-c]pyridin-6-yl)(1,6-naphthyridin-8-yl)methanone] has an IC50 of 20 nM. In the case of `C[C@H]1c2nn(C)c(-c3cc(Cl)cc(Cl)c3)c2CCN1C(=O)c1ccc2ncccc2c1` [Example 174, (S)-(3-(3,5-Dichlorophenyl)-2,7-dimethyl-2,4,5,7-tetrahydro-6H-pyrazolo[3,4-c]pyridin-6-yl)(quinolin-6-yl)methanone], the IC50 is reported as 2.62 nM.
